SMILES	melting point
COc1cc(OC)c2c3c(C(N)=O)cccc3n(Cc3ccccc3)c2c1	240 to 243 °C
CN1C2CCC1CC(O)(c1ccc(C(F)(F)F)cc1)C2 (stereo not given)	189 to 190 °C
Cc1cc(Oc2ccc(S(C)(=O)=O)nc2)cc2cc(C3=NCC(CC(=O)O)S3)[nH]c12 (stereo not given)	248 to 249 °C
O=c1oc(-c2ccc(C(F)(F)F)cc2)nn1Cc1cc(Cl)ccc1OP(=O)(O)O	173 to 176 °C
COc1cc(OC)cc(-c2nc[nH]c2-c2ccc(N(C)C)cc2)c1	79 to 81.1 °C
CCCCCCCCCCCCCCCCCNC(=O)OC[C@@H]1CO[C@@H](COC(=O)NCc2ccccn2)C1 (relative stereo)	52.7 to 54.8 °C
Cc1nc2c(c(-c3cccc([N+](=O)[O-])c3)c1C(=O)OCCO)C(=O)OC2	130 °C
N#Cc1ccc(OCCc2cccc(F)c2)cc1	79 to 81 °C
O=Cc1cccc2oc(-c3ccccc3)nc12	116 °C
CC(=O)c1nc2ccc(OC(C)C)cc2cc1O	95 to 97 °C
COc1ccc(N(Cc2cnn(Cc3ccc(F)cc3)c2)C(=O)C2CCCc3c(O)cccc32)cc1 (stereo not given)	143 to 146 °C
COC1=NS(=O)N=C1NCCCCC#CCN(C)C (stereo not given)	154 to 155 °C
O=C(O)COc1ccc2cc(-c3csc(-c4ccccc4)n3)ccc2c1Br	222 to 230 °C
COc1cccc(OCCCCC(=O)O)c1C=O	99 to 101 °C
CCC(CC)n1c(=O)ccc2cnc(Nc3ccc(N4CCN(C)CC4)cc3)nc21	155 to 157 °C
Cc1ccc(O)c(-c2cc3ccccn3n2)c1	108 °C
CC(C)CC(NC(=O)OCc1ccccc1)C(=O)Nc1nncs1 (racemic)	118 to 120 °C
CCc1nc2cnc3ccc(OCc4ccccc4)cc3c2n1C	168 to 169 °C
CN(c1ccccc1[N+](=O)[O-])S(=O)(=O)c1cccnc1Cl	180 °C
CCOC(=O)c1ccc2nc[nH]c2c1	93 to 94 °C
O=C(O)COc1ccc2cc(-c3cnc(Cc4ccccc4)o3)ccc2c1	236 to 238 °C
C[C@@H]1S[C@@H](C(=O)Nc2ccc(CN3C(=O)COC3=O)cc2)Cc2cc3c(cc2C1=O)OCO3	240 to 242 °C
Cc1cc(SCc2sc(-c3ccc(Cl)cc3)nc2C)ccc1OCC(=O)O	109 °C
O=C(Nc1ccc(F)c([N+](=O)[O-])c1)c1ccc(Cl)c(Cl)c1	202 to 204 °C

SMILES	melting point
CC1(C)Nc2ccc3c(c2N1)C(=O)c1ccccc1C3=O	235 to 237 °C
CC(C)OC(=O)Cn1c(=O)n(C)c(=O)n(-c2ccc(F)cc2Cl)c1=O	127 to 128 °C
CC(C)(C)OC(=O)Oc1cc2c(s1)CCN(C(C(=O)C1CC1)c1ccccc1F)C2 (stereo not given)	98 to 99 °C
Cc1[nH]n(C2CCCC2O)c2nc(-c3ccncc3)nc(=O)c1-2 (stereo not given)	281 to 283 °C
COc1cc(I)ccc1C(=O)Nc1ccc(OC)c(N2CCN(C)CC2)c1	168 to 170 °C
CC(=O)Nc1ccccc1OCCCN1CCC(c2noc3cc(F)ccc23)CC1	118 to 120 °C
CCCCN(C(C)=O)C1CC(C)(C)N(OC(=O)C(C)(C)C)C(C)(C)C1	81 to 94 °C
O=S(=O)(Nc1cc(Cl)c(Oc2nc3ccc(Cl)cc3s2)c(Cl)c1)c1ccc(Cl)cc1Cl	73 to 75 °C
CCOCc1nc2c(N)nc3cc(OCc4ccc(F)cc4)ccc3c2n1CC(C)(C)NS(C)(=O)=O	251 to 253 °C
CC(=O)Oc1ccc(Cc2n[nH]c3c2c(=O)n(-c2ccccc2)c2ncccc32)cc1	278 to 282 °C
COc1cc(OCCNC(C)=O)cc(-c2nc3cc(OC)cc(OC)c3c(=O)[nH]2)c1	264 to 265 °C
CC[C@@H]1C(=O)N(Cc2ccc(OC)cc2OC)[C@H]1C(=O)O (relative stereo)	122 to 123 °C
CC(=O)Nc1ccc2c(c1)NCC(CN(C)C)C2 (stereo not given)	118 to 123 °C
CCOc1cc2cc(CO)cc(-c3ccnc(NN)c3)c2cc1OCC	147 to 149 °C
CCCCc1c(OS(=O)(=O)c2ccc(C)cc2)n(-c2ccccc2)n(-c2ccccc2)c1=O	112 to 121 °C
OCC1OC(n2cnc3c(NC4CCC(O)C4)ncnc32)C(O)C1O (stereo not given)	208 to 210 °C
CNS(=O)(=O)c1ccc(NN=C2C(=O)Nc3ccc(C(N)=O)cc32)cc1	> 250 °C
O=C(O)CCc1cnoc1-c1ccc(Cl)c(F)c1	139 to 140 °C
CNC(=O)c1cc(N)cc(C(F)(F)F)c1	113 to 115 °C
CCCCCCCCCCCCCCCCCCOc1cc(N)cc(C(N)=O)c1	139 to 143 °C
Cn1cc(C2=C(n3ccc4ccccc43)C(=O)NC2=O)c2ccccc21	235 to 236 °C
CCNc1ncc(S(=O)(=O)NCC)cc1[N+](=O)[O-]	153 to 155 °C
CC(C)CN(C)S(=O)(=O)c1cccc(-c2cc(-c3nc(-c4ccc(C(F)(F)F)cc4)cc(C(F)(F)F)n3)ccn2)c1	144 °C
COc1ccc(C2CNC(=O)O2)cc1O (stereo not given)	157 to 160 °C

SMILES	melting point
COC(=O)c1cc(Cl)sc1N	99 to 101 °C
O=[N+]([O-])c1cccnc1N=C=S	115 to 118 °C
CC(C)(C)Cn1cc(-c2ccc(Oc3ccccc3)cc2)c2c(N)ncnc21	158 °C
COC(=O)C1=C(C)NC(C)=C(C(=O)OC(C)C)C1c1cccc([N+](=O)[O-])c1 (stereo not given)	142 to 144 °C
N#CC1=C(C2CC(=O)N(Cc3ccccc3)C2)Nc2n[nH]cc2C1c1ccccc1Cl (stereo not given)	> 230 °C
COc1ccc(Cn2cnc3c(-c4ccco4)nc(Cl)nc32)cc1C	177 to 179 °C
CCCCCCOC1CC(C)(C)N(c2nc(Cl)nc(Cl)n2)C(C)(C)C1	49 to 51 °C
COCCCCCC(=O)c1ccc(S(C)=O)cc1 (stereo not given)	74 to 77 °C
COC(=O)c1cc(C#Cc2ccc(C(=O)OC(C)(C)C)cc2)cnc1Cl	123 to 124 °C
COc1ccc2c(c1)CCC1C2=CCC2(C)C(=O)CCC12 (stereo not given)	139 to 143 °C
Cn1ccc2c1CC(C(=O)OCc1ccccc1)C1C(=O)NC(=O)C21 (stereo not given)	189 to 193 °C
Cc1c(Cl)cc(C(C)C)c2oc(SCCN3CCN(CC(=O)Nc4c(C(C)C)cccc4C(C)C)CC3)nc12	162 to 163 °C
CN1CCC(Oc2cnccn2)(c2ccccc2)CC1	115 to 116 °C
O=C(CC1(c2ccccc2)C(=O)Oc2ccc(Cl)cc21)N1CCN(c2ccc(C(F)(F)F)cn2)CC1 (stereo not given)	228 °C
CC(c1ccc(C(=O)O)cc1)N(C)c1ccc(Br)cc1OCc1ccccc1 (stereo not given)	182 °C
Cn1c(=O)cc(CCc2ccc(Cl)s2)c2cc(C(=O)c3ccc(Cl)cc3)ccc21	151 °C
Cc1ccc(C(C=NO)=NO)cc1	170 to 176 °C
COc1cc2nc(SC)c(C#N)c(C)c2cc1OCc1ccccc1	171 to 174 °C
COc1ccc(-c2cc(=O)n(CCN3CCOCC3)nc2-c2ccc(OC)cc2)cc1	145 to 146 °C
COc1cc2ncc(C#N)c(Nc3ccc(F)c(Cl)c3)c2cc1NC(=O)C=CCN1CCC(O)CC1	> 215 °C
CC(C)c1cc(C(C)C)c(NC(=O)CN2CCN(CCCSc3nc4ccccc4s3)CC2)c(C(C)C)c1	107 to 108 °C
CC(C)(C(=O)Nc1cccc(C(F)(F)F)c1)N1COC(C(F)F)=C(c2ccccc2)C1=O	58 to 60 °C
